According to patent publication US4272630A, “D-Homosteroids” (priority 1979, dated 1981):
In brackets after ≈: the same amount, converted by molar mass.

Experiments:
[1] = tested on: granulomas in female rats; assay: Felt Pellet Test (granuloma reduction, oral); type: in vivo; settings: Rattus norvegicus, four successive days, female rats (90-110 g), removed on 5th day, read-out: Felt Pellet ED40 (dosage which gave a 40% reduction of the granulation weight)
Description: (§1) The tests carried out can be described as follows:
Two felt pellets were implanted under the skin (scapula region) in female rats (90-110 g) under ether narcosis. The D-homosteroids were administered orally on four successive days commencing on the day of the implantation. On the 5th day, the rats were killed, and the granulomas which formed were removed, dried and weighed. The ED40, namely that dosage which gave a 40% reduction of the granulation weight, was determined.

[2] = tested on: ear of male mice (oedema); assay: Mouse Ear Test (oedema inhibition, topical, croton oil); type: in vivo; settings: dissolved in croton oil, applied 15 seconds under 600 g to right ear of male mice (25-30 g), 4 hours, read-out: Mouse Ear EC50 (concentration which gave a 50% oedema inhibition in comparison with a control group)
Description: as §1
The D-homosteroids, dissolved in croton oil, were applied for 15 seconds under a pressure of 600 g to the right ear of male mice weighing 25-30 g. The left ear served as the control. Four hours later, the mice were killed, and tissue was removed with a punch from the same position on treated and untreated ears and weighed. The EC50, namely that concentration which gave a 50% oedema inhibition in comparison with a control group, was determined.

| Structure (SMILES) | ED40 [1] [mg/kg] | EC50 [2] [µg/mL] |
| --- | --- | --- |
| COC(=O)C1(OC(C)=O)C=CCC2C3CCC4=CC(=O)C=CC4(C)C3C(O)CC21C [17aα-acetoxy-11β-hydroxy-3-oxo-D-homoandrosta-1,4,16-triene-17aβ-carboxylic acid methyl ester] | 6.4 | 30 (≈ 72.4 µM) |
| COC(=O)C1(OC(C)=O)C=CCC2C3CCC4=CC(=O)C=CC4(C)C3(F)C(O)CC21C [17-acetoxy-9-fluoro-11β-hydroxy-3-oxo-D-homoandrosta-1,4,16-triene-17aβ-carboxylic acid methyl ester] | 6 | 10 (≈ 23.1 µM) |
